Data: article PMC6757289, “Design and Characterization of SGK3-PROTAC1, an Isoform Specific SGK3 Kinase PROTAC Degrader” (ACS Chemical Biology, 2019)
Read-outs that look alike come from different tables or passages of the source.

Key:
Test in all cases: kinase profiling panel
Type in all cases: biochemical
Settings in all cases: read-out: % Activity Remaining
[1] = target: CHK2 (Homo sapiens, UniProt O96017)
Excerpt: (§1) Protein kinase profiling against a Dundee panel of 140 protein kinases was undertaken at the International Centre for Protein Kinase Profiling. The result for each kinase was presented as a mean kinase activity of the reaction taken in triplicate relative to a control sample treated with DMSO. Assay conditions and abbreviations are available at http://www.kinase-screen.mrc.ac.uk.

[2] = target: HIPK1 (Homo sapiens, UniProt Q86Z02)
Sequence of HIPK1 (Q86Z02 whole entry): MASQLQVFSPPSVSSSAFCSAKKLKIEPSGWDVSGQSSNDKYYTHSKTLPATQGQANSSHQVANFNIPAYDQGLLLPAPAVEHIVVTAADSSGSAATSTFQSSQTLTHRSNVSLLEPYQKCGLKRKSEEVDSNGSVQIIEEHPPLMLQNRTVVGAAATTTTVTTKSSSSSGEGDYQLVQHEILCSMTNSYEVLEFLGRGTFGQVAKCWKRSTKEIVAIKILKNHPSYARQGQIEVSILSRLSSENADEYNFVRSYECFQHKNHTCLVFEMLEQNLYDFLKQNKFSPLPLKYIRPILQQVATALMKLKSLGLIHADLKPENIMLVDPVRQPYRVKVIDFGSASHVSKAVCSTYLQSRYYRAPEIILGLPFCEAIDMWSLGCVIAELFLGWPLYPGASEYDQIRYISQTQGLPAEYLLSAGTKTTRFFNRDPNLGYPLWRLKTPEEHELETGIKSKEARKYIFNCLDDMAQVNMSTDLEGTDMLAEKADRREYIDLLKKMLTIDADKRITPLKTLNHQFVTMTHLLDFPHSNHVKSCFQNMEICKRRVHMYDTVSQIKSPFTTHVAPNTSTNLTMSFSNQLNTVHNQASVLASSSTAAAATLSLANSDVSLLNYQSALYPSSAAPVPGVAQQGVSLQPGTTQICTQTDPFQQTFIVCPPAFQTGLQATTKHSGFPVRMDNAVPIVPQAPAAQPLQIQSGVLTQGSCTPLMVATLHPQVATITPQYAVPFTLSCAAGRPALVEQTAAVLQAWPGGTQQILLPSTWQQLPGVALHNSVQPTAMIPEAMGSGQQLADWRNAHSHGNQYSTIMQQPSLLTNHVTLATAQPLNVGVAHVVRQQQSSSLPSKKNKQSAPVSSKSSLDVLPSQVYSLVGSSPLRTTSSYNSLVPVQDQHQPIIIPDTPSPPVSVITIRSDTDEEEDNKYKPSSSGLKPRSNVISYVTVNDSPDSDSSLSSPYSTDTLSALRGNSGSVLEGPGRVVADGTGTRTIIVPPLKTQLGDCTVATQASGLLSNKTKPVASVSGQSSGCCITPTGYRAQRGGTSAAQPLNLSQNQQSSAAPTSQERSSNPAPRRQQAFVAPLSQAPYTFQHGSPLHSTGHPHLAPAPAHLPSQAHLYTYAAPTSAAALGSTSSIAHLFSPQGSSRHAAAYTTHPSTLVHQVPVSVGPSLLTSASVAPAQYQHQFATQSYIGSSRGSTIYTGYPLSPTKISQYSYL
Excerpt: as §1

[3] = target: T1, TLK1 (Homo sapiens, UniProt Q9UKI8)
T1 sequence (Q9UKI8 1-766): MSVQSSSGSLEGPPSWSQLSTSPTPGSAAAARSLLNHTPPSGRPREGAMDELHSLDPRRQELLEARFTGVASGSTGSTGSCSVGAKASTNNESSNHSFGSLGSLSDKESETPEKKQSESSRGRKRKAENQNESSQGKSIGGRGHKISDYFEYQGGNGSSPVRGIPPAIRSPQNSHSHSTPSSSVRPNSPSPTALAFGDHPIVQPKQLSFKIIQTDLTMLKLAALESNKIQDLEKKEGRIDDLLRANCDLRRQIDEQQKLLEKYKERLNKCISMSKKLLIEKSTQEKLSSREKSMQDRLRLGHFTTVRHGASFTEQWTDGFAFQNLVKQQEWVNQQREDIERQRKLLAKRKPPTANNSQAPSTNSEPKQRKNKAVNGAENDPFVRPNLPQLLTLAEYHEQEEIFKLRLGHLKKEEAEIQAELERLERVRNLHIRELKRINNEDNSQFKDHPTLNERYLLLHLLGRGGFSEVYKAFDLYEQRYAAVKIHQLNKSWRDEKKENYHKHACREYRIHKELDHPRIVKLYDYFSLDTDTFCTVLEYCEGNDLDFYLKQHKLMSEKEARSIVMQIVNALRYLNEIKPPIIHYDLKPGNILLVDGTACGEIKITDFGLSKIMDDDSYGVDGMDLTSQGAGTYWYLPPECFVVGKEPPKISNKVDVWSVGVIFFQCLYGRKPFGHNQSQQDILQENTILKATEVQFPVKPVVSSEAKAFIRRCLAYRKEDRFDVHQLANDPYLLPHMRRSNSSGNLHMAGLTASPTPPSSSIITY
Excerpt: as §1

[4] = target: PAK5 (Homo sapiens, UniProt Q9P286)
Sequence of PAK5 (Q9P286 whole entry): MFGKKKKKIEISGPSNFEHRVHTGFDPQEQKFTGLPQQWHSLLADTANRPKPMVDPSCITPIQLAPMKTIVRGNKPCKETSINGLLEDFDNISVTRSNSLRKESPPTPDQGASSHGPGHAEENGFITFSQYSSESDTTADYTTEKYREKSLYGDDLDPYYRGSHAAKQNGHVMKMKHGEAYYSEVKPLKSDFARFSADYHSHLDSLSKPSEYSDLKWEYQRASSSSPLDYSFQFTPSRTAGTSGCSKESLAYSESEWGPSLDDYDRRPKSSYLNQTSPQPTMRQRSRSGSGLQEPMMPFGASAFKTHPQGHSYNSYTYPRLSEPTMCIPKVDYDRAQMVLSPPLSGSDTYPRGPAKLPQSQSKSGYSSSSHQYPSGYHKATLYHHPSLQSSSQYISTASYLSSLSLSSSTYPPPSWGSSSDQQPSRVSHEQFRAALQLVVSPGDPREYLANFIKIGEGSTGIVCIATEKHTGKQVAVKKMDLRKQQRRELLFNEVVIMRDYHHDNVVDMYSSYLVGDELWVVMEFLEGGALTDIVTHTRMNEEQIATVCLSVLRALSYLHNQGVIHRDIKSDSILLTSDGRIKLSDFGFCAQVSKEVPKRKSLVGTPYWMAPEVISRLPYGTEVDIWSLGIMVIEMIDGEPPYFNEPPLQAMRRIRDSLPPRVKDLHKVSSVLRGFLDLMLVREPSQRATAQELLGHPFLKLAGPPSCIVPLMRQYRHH
Excerpt: as §1

[5] = target: CAMKK beta (Homo sapiens, UniProt Q96RR4)
Sequence of CAMKK beta (Q96RR4 whole entry): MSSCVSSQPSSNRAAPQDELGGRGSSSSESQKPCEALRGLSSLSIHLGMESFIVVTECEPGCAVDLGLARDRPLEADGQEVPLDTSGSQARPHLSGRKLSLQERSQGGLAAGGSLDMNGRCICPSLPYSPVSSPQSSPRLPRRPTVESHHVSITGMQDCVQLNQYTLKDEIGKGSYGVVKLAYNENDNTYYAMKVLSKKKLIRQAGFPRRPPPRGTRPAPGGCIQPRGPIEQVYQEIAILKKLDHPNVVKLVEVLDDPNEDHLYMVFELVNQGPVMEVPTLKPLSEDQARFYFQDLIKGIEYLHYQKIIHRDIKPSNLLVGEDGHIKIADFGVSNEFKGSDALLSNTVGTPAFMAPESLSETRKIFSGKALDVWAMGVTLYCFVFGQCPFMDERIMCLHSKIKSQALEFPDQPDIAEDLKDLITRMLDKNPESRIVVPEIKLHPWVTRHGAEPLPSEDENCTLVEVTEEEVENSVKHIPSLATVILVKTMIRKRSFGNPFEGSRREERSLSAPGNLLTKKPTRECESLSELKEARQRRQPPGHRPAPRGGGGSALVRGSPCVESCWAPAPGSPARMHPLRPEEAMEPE
Excerpt: as §1

[6] = target: CK1 gamma 2 (Homo sapiens, UniProt P78368)
Sequence of CK1 gamma 2 (P78368 whole entry): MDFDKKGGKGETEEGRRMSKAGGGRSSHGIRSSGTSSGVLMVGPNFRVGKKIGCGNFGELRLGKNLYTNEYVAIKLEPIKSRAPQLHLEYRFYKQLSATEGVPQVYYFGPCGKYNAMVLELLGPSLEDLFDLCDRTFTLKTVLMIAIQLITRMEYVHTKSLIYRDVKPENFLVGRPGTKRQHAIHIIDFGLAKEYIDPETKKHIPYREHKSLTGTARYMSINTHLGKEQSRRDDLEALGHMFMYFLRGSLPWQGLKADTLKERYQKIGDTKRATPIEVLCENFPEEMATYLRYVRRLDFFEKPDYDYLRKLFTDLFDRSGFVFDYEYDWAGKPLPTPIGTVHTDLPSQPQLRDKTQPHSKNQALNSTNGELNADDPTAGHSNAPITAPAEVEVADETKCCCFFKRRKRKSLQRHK
Excerpt: as §1

[7] = target: T2, EPH-B3 (Homo sapiens, UniProt P54753)
T2 sequence (P54753 34-998): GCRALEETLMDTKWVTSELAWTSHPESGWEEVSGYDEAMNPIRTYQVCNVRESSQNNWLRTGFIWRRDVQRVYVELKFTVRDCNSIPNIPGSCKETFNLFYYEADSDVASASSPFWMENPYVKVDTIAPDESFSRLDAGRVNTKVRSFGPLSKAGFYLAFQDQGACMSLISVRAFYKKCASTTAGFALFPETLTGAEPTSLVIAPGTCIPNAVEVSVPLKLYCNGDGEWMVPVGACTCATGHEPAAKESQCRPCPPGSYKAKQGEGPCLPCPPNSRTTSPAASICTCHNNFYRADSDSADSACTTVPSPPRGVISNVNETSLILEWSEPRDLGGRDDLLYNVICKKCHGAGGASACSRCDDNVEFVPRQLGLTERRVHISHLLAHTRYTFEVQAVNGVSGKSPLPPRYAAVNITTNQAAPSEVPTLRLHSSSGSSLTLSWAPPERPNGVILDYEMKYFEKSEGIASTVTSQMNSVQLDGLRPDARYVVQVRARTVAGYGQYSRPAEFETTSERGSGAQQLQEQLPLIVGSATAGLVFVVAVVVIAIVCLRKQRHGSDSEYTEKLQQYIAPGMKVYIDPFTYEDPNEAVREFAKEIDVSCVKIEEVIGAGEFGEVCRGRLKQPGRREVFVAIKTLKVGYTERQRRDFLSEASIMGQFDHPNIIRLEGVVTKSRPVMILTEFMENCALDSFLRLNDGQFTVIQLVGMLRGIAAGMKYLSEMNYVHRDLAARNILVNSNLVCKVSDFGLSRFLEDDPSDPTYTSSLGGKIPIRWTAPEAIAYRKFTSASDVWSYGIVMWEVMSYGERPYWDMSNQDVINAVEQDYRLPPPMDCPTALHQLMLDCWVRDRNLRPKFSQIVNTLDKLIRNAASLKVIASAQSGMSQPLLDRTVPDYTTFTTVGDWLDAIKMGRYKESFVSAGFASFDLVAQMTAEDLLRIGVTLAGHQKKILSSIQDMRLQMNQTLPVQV
Excerpt: as §1

[8] = target: CSK (Homo sapiens, UniProt P41240)
Sequence of CSK (P41240 whole entry): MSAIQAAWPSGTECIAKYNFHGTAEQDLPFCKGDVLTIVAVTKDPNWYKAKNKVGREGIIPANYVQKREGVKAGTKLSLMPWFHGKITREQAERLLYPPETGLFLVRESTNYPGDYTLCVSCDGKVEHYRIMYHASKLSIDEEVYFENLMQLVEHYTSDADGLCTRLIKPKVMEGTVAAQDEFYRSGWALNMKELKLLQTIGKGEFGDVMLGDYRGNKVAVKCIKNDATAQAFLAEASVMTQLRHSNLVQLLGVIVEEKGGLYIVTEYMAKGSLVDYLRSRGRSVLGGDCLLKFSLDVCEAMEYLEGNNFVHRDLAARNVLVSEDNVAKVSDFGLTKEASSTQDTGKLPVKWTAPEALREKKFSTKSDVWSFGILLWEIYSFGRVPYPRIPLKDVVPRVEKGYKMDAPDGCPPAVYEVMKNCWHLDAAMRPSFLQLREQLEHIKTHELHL
Excerpt: as §1

[9] = target: T3, IKK epsilon (Homo sapiens, UniProt Q14164)
T3 sequence (Q14164 1-716): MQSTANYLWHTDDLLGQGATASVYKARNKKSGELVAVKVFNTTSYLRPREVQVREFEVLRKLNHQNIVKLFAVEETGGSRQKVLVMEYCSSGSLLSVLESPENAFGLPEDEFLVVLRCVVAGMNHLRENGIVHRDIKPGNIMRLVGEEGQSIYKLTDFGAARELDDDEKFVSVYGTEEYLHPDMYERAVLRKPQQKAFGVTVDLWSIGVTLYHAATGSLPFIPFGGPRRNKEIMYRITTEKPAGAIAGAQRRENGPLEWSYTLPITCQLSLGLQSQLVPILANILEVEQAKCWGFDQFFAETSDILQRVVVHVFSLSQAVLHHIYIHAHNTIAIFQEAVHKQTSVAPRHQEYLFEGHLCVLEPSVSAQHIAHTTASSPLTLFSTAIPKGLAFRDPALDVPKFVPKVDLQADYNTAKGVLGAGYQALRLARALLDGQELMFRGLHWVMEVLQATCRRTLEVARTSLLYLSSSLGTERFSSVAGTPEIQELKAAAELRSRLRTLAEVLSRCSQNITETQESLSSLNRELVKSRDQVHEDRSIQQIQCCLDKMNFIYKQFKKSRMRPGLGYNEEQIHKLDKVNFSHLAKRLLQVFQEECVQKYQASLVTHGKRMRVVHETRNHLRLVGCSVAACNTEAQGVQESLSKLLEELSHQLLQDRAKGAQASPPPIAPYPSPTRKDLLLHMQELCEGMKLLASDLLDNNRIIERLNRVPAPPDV
Excerpt: as §1

Sequence of CHK2 (O96017 whole entry): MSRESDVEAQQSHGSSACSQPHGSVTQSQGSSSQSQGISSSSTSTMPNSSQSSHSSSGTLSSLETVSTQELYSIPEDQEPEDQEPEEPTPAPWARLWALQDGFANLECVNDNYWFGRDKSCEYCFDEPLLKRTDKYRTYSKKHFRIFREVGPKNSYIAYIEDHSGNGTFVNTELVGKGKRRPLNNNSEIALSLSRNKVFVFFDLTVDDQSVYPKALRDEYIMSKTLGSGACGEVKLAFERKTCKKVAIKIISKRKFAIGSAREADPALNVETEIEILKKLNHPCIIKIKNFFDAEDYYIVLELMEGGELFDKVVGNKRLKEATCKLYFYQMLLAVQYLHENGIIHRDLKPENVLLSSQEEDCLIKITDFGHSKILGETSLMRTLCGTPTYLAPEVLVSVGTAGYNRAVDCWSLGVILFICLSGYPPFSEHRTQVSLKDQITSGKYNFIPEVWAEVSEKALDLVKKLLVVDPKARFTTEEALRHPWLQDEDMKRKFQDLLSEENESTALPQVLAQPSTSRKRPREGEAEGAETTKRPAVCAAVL

Cc1ccc(F)c(S(=O)(=O)Nc2ccc(-c3nc(OC[C@H]4CN(CCCCCCOCCOCCOCC(=O)N[C@H](C(=O)N5C[C@H](O)C[C@H]5C(=O)NCc5ccc(-c6scnc6C)cc5)C(C)(C)C)CCO4)c4cn[nH]c4n3)cc2)c1 [SGK3-PROTAC1]
remaining activity at 1 µM ([1]; 1 µM): 85%
remaining activity at 1 µM ([2]; 1 µM): 135%
remaining activity at 1 µM ([3]; 1 µM): 102%
remaining activity at 1 µM ([4]; 1 µM): 88%
remaining activity at 1 µM ([5]; 1 µM): 99%
remaining activity at 1 µM ([6]; 1 µM): 101%
remaining activity at 1 µM ([7]; 1 µM): 92%
remaining activity at 1 µM ([8]; 1 µM): 118%
remaining activity at 1 µM ([9]; 1 µM): 108%

COc1ccc(Cl)c(S(=O)(=O)Nc2ccc(-c3nc(OC[C@H]4CNCCO4)c4c(C)n[nH]c4n3)cc2)c1 [290-R, reference compound]
remaining activity at 1 µM [1]: 9%
remaining activity at 1 µM [2]: 117%
remaining activity at 1 µM [3]: 89%
remaining activity at 1 µM [4]: 110%
remaining activity at 1 µM [5]: 77%
remaining activity at 1 µM [6]: 112%
remaining activity at 1 µM [7]: 104%
remaining activity at 1 µM [8]: 66%
remaining activity at 1 µM [9]: 34%

Cc1ccc(F)c(S(=O)(=O)Nc2ccc(-c3nc(OC[C@H]4CN(CCCCCCOCCOCCOCC(=O)N[C@H](C(=O)N5C[C@@H](O)C[C@H]5C(=O)NCc5ccc(-c6scnc6C)cc5)C(C)(C)C)CCO4)c4cn[nH]c4n3)cc2)c1 [cisSGK3-PROTAC1]
remaining activity at 1 µM ([1]; 1 µM): 99%
remaining activity at 1 µM ([2]; 1 µM): 126%
remaining activity at 1 µM ([3]; 1 µM): 109%
remaining activity at 1 µM ([4]; 1 µM): 105%
remaining activity at 1 µM ([5]; 1 µM): 108%
remaining activity at 1 µM ([6]; 1 µM): 106%
remaining activity at 1 µM ([7]; 1 µM): 104%
remaining activity at 1 µM ([8]; 1 µM): 113%
remaining activity at 1 µM ([9]; 1 µM): 99%

Cc1ccc(F)c(S(=O)(=O)Nc2ccc(-c3nc(OC[C@H]4CNCCO4)c4cn[nH]c4n3)cc2)c1 [308-R, reference compound]
remaining activity at 1 µM [1]: 24%
remaining activity at 1 µM [2]: 73%
remaining activity at 1 µM [3]: 108%
remaining activity at 1 µM [4]: 83%
remaining activity at 1 µM [5]: 106%
remaining activity at 1 µM [6]: 67%
remaining activity at 1 µM [7]: 64%
remaining activity at 1 µM [8]: 96%
remaining activity at 1 µM [9]: 26%
